The source of these data is patent publication US10246486B2, “Macrocyclic inhibitors of flaviviridae viruses” (Gilead Sciences, Inc., priority 2012, dated 2019).

For data set [1], the system named is HCV replicon 1a (human hepatoma Huh-7 cell line harboring a HCV replicon). As to the kind of experiment: microbe, parasite or virus in culture. Conditions: for inhibition at 1 µM: Hepatitis C virus, Huh-7, 72 h, read-out: Replicon 1a % inhibition at 1 μm. It is filed as cell-based. A general note: In antiviral work, replicon cells carry a viral genome segment that copies itself.

For data set [2] the following is noted: rcm bond, Hoveyda-Grubbs 2nd generation catalyst.

Structures are written as SMILES. Where two headings read alike, the source gives them in different places.

For the compound `C[C@@H]1NC(=O)[C@H](CCn2ccnn2)NC(=O)C(C)(C)/C=C/c2cc3cc(ccc3cn2)[C@@H](C)OC(=O)[C@@H]2CCCN(N2)C1=O` [Example 50], the “Replicon 1a % inhibition at 1 μm” value in data set [1] is 12%. Turning to `C[C@@H]1NC(=O)[C@H](CCc2ccccc2)NC(=O)CC=Cc2cc3cc(ccc3cn2)[C@@H](C)OC(=O)[C@@H]2CCCN(N2)C1=O`, in data set [2] (from C=Cc1cc2cc([C@@H](C)OC(=O)[C@@H]3CCCN(C(=O)[C@H](C)NC(=O)[C@H](CCc4ccccc4)NC(=O)C/C=C/C)N3)ccc2cn1, chlorobenzene, 4.81 mM, 110.0 °C, 3.5 h), the ring closure, yield of all isomers was determined as 12%. In the case of `CC(C)[C@@H]1NC(=O)[C@H](C)CC=CCOc2ccc(F)c(c2)[C@@H](C)OC(=O)[C@@H]2CCCN(N2)C(=O)[C@H](C)NC1=O`, the ring closure, yield of all isomers in data set [2] (from C=CCOc1ccc(F)c([C@@H](C)OC(=O)[C@@H]2CCCN(C(=O)[C@H](C)NC(=O)[C@@H](NC(=O)[C@H](C)CC=C)C(C)C)N2)c1, 1,2-dichloroethane, 3.0 mM, 83.0 °C, 2.0 h) worked out at 20%.

Regarding `CO[C@@H]1CCC=Cc2cccc(c2)C2CCCCN2C(=O)[C@@H]2CCCN(N2)C(=O)[C@H](C)NC(=O)[C@H](C(C)C)NC(=O)[C@@H]1C` (some centres unmarked), the ring closure, yield of all isomers in data set [2] (from C=CCC[C@@H](OC)[C@@H](C)C(=O)N[C@H](C(=O)N[C@@H](C)C(=O)N1CCC[C@@H](C(=O)N2CCCCC2c2cccc(C=C)c2)N1)C(C)C, 1,2-dichloroethane, 3.05 mM, 84.0 °C, 2.5 h) turned out to be 18%. Compound `CC1C=Cc2cc3cc(ccc3cn2)[C@@H](C)OC(=O)[C@@H]2CCCN(N2)C(=O)[C@H](C)NC(=O)[C@H](C(C)C)NC1=O` (some centres unmarked) gave a ring closure, yield of all isomers in data set [2] (from C=Cc1cc2cc([C@@H](C)OC(=O)[C@@H]3CCCN(C(=O)[C@H](C)NC(=O)[C@@H](NC(=O)C(C)C=C)C(C)C)N3)ccc2cn1, toluene, 2.6 mM, 111.0 °C, 3.0 h) of 1%. As for `CO[C@@H]1/C=C/c2cc3cc(ccc3cn2)[C@@H](C)OC(=O)[C@@]2(C)CCCN(N2)C(=O)[C@H](C)NC(=O)[C@H](C(C)C)NC(=O)[C@@H]1C` [Example 33], the inhibition (in general, the relative decrease from the control value, in per cent) at 1 µM in data set [1] is 14%.

For the compound `CO[C@@H]1C=Cc2cc3cc(ccc3cn2)[C@@H](C)OC(=O)C2(C)CCCN(N2)C(=O)[C@H](C)NC(=O)[C@H](C(C)C)NC(=O)[C@@H]1C` (some centres unmarked), the ring closure, yield of all isomers in data set [2] (from C=Cc1cc2cc([C@@H](C)OC(=O)C3(C)CCCN(C(=O)[C@H](C)NC(=O)[C@@H](NC(=O)[C@H](C)[C@@H](/C=C/C)OC)C(C)C)N3)ccc2cn1, toluene, 3.06 mM, 111.0 °C, 3.5 h) was 21%.

With `CC[C@@H]1C=Cc2cc3cc(ccc3cn2)[C@@H](C)OC(=O)[C@@H]2CCCN(N2)C(=O)[C@H](C)NC(=O)[C@H](C(C)C)NC1=O`, in data set [2] (from C=Cc1cc2cc([C@@H](C)OC(=O)[C@@H]3CCCN(C(=O)[C@H](C)NC(=O)[C@@H](NC(=O)[C@@H](/C=C/C)CC)C(C)C)N3)ccc2cn1, toluene, 3.0 mM, 120.0 °C, 4.0 h), the ring closure, yield of all isomers is 1%. `CC(C)[C@@H]1NC(=O)CCCC=Cc2cc3cc(ccc3cn2)[C@@H](C)OC(=O)[C@@H]2CCCN(N2)C(=O)[C@H](C)NC1=O` returned a ring closure, yield of all isomers in data set [2] (from C=CCCCC(=O)N[C@H](C(=O)N[C@@H](C)C(=O)N1CCC[C@@H](C(=O)O[C@H](C)c2ccc3cnc(C=C)cc3c2)N1)C(C)C, toluene, 2.41 mM, 111.0 °C, 0.5 h) of 63%. For the compound `CO[C@@H]1/C=C/COc2cccc(c2)[C@@H](C(C)C)NC(=O)[C@@H]2CCCN(N2)C(=O)[C@H](C)NC(=O)[C@H](C(C)C)NC(=O)[C@@H]1C` [Example 37, (E)-(2R,5S,11S,14S,17R,18R)-2,14-Diisopropyl-18-methoxy-11,17-di methyl-22-oxa-3,9,12,15,28-pentaaza-tricyclo[21.3.1.1*5,9]octacosa-1(27),19,23,25-tetraene-4,10,13,16-tetraone], in data set [1], the “Replicon 1a % inhibition at 1 μm” value is 76%. The compound `C[C@@H]1NC(=O)[C@H](CO[Si](C)(C)C(C)(C)C)NC(=O)CC=Cc2cc3cc(ccc3cn2)[C@@H](C)OC(=O)[C@@H]2CCCN(N2)C1=O` showed a ring closure, yield of all isomers in data set [2] (from C=Cc1cc2cc([C@@H](C)OC(=O)[C@@H]3CCCN(C(=O)[C@H](C)NC(=O)[C@H](CO[Si](C)(C)C(C)(C)C)NC(=O)C/C=C/C)N3)ccc2cn1, toluene, 2.98 mM, 105.0 °C, 0.58 h) of 38%. Compound `CC(C)[C@@H]1NC(=O)[C@H](C)CC=Cc2cc3cc(ccc3cn2)[C@@H](C)OC(=O)[C@@H]2CCCN(N2)C(=O)[C@H](C)NC1=O` came in with a ring closure, yield of all isomers in data set [2] (from C=CC[C@@H](C)C(=O)N[C@H](C(=O)N[C@@H](C)C(=O)N1CCC[C@@H](C(=O)O[C@H](C)c2ccc3cnc(C=C)cc3c2)N1)C(C)C, toluene, 3.0 mM, 120.0 °C, 3.0 h) of 22%. Take `CO[C@@H]1C=Cc2cc3cc(ccc3cn2)[C@@H](C)NC(=O)[C@@H]2CCCN(N2)C(=O)[C@H](C)NC(=O)[C@H](C(C)C)NC(=O)[C@@H]1C`: in data set [2] (from C=Cc1cc2cc([C@@H](C)NC(=O)[C@@H]3CCCN(C(=O)[C@H](C)NC(=O)[C@@H](NC(=O)[C@H](C)[C@@H](/C=C/C)OC)C(C)C)N3)ccc2cn1, toluene, 3.33 mM, 110.0 °C, 8.0 h), the ring closure, yield of all isomers turned out to be 26%. On to `CO[C@@H]1CCC=Cc2ccc3c(c2)[C@@H](CC3)N(C)C(=O)[C@@H]2CCCN(N2)C(=O)[C@H](C)NC(=O)[C@H](C(C)C)NC(=O)[C@@H]1C`, for which the ring closure, yield of all isomers in data set [2] (from C=CCC[C@@H](OC)[C@@H](C)C(=O)N[C@H](C(=O)N[C@@H](C)C(=O)N1CCC[C@@H](C(=O)N(C)[C@@H]2CCc3ccc(C=C)cc32)N1)C(C)C, 1,2-dichloroethane, 3.9 mM, 83.0 °C, 1.5 h) is 5%.

As for `CC(C)[C@@H]1NC(=O)CC=Cc2ccc3ccc(cc3n2)[C@@H](C)OC(=O)[C@@H]2CCCN(N2)C(=O)[C@H](C)NC1=O`, the ring closure, yield of all isomers in data set [2] (from C=CCC(=O)N[C@H](C(=O)N[C@@H](C)C(=O)N1CCC[C@@H](C(=O)O[C@H](C)c2ccc3ccc(C=C)nc3c2)N1)C(C)C, 1,2-dichloroethane, 18.2 mM, 100.0 °C, 1.0 h) came out at 3%. As for `C[C@@H]1NC(=O)[C@H](CCn2cc(CO)nn2)NC(=O)C(C)(C)/C=C/c2cc3cc(ccc3cn2)[C@@H](C)OC(=O)[C@@H]2CCCN(N2)C1=O` [Compound 72], the “Replicon 1a % inhibition at 1 μm” value in data set [1] came to 0%.

`CC(C)[C@@H]1NC(=O)[C@H](C)C/C=C/COc2ccc(F)c(c2)[C@@H](C)OC(=O)[C@@H]2CCCN(N2)C(=O)[C@H](C)NC1=O` [Example 35]: the inhibition at 1 µM in data set [1] is 94%.

In turn, `CC(C)[C@@H]1NC(=O)CCCCC=Cc2cc3cc(ccc3cn2)[C@@H](C)OC(=O)[C@@H]2CCCN(N2)C(=O)[C@H](C)NC1=O` gave a ring closure, yield of all isomers in data set [2] (from C=CCCCCC(=O)N[C@H](C(=O)N[C@@H](C)C(=O)N1CCC[C@@H](C(=O)O[C@H](C)c2ccc3cnc(C=C)cc3c2)N1)C(C)C, toluene, 2.16 mM, 111.0 °C, 0.5 h) of 31%. Take `C[C@@H]1NC(=O)[C@H]([C@@H](C)O[Si](C)(C)C(C)(C)C)NC(=O)CC=Cc2cc3cc(ccc3cn2)[C@@H](C)OC(=O)[C@@H]2CCCN(N2)C1=O`: the ring closure, yield of all isomers in data set [2] (from C=Cc1cc2cc([C@@H](C)OC(=O)[C@@H]3CCCN(C(=O)[C@H](C)NC(=O)[C@@H](NC(=O)C/C=C/C)[C@@H](C)O[Si](C)(C)C(C)(C)C)N3)ccc2cn1, toluene, 2.94 mM, 105.0 °C, 1.0 h) came out at 42%. In turn, `C[C@@H]1NC(=O)[C@H](C2CCCCC2)NC(=O)CC=Cc2cc3cc(ccc3cn2)[C@@H](C)OC(=O)[C@@H]2CCCN(N2)C1=O` came in with a ring closure, yield of all isomers in data set [2] (from C=Cc1cc2cc([C@@H](C)OC(=O)[C@@H]3CCCN(C(=O)[C@H](C)NC(=O)[C@@H](NC(=O)C/C=C/C)C4CCCCC4)N3)ccc2cn1, toluene, 5.0 mM, 110.0 °C, 2.0 h) of 7%. Compound `CC(C)[C@@H]1NC(=O)CC=Cc2cc3cc(ccc3cn2)[C@@H](C(F)(F)F)NC(=O)[C@@H]2CCCN(N2)C(=O)[C@H](C)NC1=O` had a ring closure, yield of all isomers in data set [2] (from C=CCC(=O)N[C@H](C(=O)N[C@@H](C)C(=O)N1CCC[C@@H](C(=O)N[C@@H](c2ccc3cnc(C=C)cc3c2)C(F)(F)F)N1)C(C)C, toluene, 3.04 mM, 120.0 °C, 2.83 h) of 3%. `CC(C)[C@@H]1NC(=O)CC=Cc2cc3cc(ccc3cn2)[C@@H](C)OC(=O)[C@@H]2CCCN(N2)C(=O)[C@H](C)NC1=O`: the ring closure, yield of all isomers in data set [2] (from C=Cc1cc2cc([C@@H](C)OC(=O)[C@@H]3CCCN(C(=O)[C@H](C)NC(=O)[C@@H](NC(=O)C/C=C/C)C(C)C)N3)ccc2cn1, toluene, 3.33 mM, 110.0 °C, 1.0 h) came to 23.5%. Regarding `CC(C)[C@@H]1NC(=O)[C@H](C)[C@H](O[Si](C)(C)C(C)(C)C)CCC=Cc2cccc(c2)[C@@H](C)NC(=O)[C@@H]2CCCN(N2)C(=O)[C@H](C)NC1=O`, in data set [2] (from C=CCC[C@@H](O[Si](C)(C)C(C)(C)C)[C@@H](C)C(=O)N[C@H](C(=O)N[C@@H](C)C(=O)N1CCC[C@@H](C(=O)N[C@H](C)c2cccc(C=C)c2)N1)C(C)C, 1,2-dichloroethane, 2.8 mM, 80.0 °C, 1.0 h), the ring closure, yield of all isomers worked out at 43%.

Regarding `CC(C)[C@@H]1NC(=O)CC=Cc2cc3cc(ccc3cn2)[C@@H](C)NC(=O)[C@@H]2CCCN(N2)C(=O)[C@H](C)NC1=O`, the ring closure, yield of all isomers in data set [2] (from C=CCC(=O)N[C@H](C(=O)N[C@@H](C)C(=O)N1CCC[C@@H](C(=O)N[C@H](C)c2ccc3cnc(C=C)cc3c2)N1)C(C)C, toluene, 3.86 mM, 111.0 °C, 3.0 h) amounted to 2.2%. In data set [2] (from C=Cc1cc2cc([C@@H](C)OC(=O)[C@@H]3CCCN(C(=O)[C@H](C)NC(=O)[C@H](Cc4ccccc4)NC(=O)C/C=C/C)N3)ccc2cn1, chlorobenzene, 4.96 mM, 110.0 °C, 3.0 h), `C[C@@H]1NC(=O)[C@H](Cc2ccccc2)NC(=O)CC=Cc2cc3cc(ccc3cn2)[C@@H](C)OC(=O)[C@@H]2CCCN(N2)C1=O` had a ring closure, yield of all isomers of 12%. Compound `CC(C)[C@@H]1NC(=O)CCC(C)(C)CC=Cc2cccc(c2)[C@@H](C)NC(=O)[C@@H]2CCCN(N2)C(=O)[C@H](C)NC1=O` registered a ring closure, yield of all isomers in data set [2] (from C=CCC(C)(C)CCC(=O)N[C@H](C(=O)N[C@@H](C)C(=O)N1CCC[C@@H](C(=O)N[C@H](C)c2cccc(C=C)c2)N1)C(C)C, 1,2-dichloroethane, 3.38 mM, 80.0 °C, 1.0 h) of 8%.
